Here are results for 24 compounds from patent US10906894B2, “Compounds containing benzo[d][1,3]oxathiole, benzo[d][1,3]oxathiole 3-oxide or benzo[d][1,3]oxathiole 3,3-dioxide and methods/uses thereof as agonists of g protein-coupled receptor 119” (PRAMANA PHARMACEUTICALS INC., priority 2016, dated 2021).

The target of the assay is T1, GPR119 (Homo sapiens, UniProt Q8TDV5).
T1 sequence (Q8TDV5 1-335): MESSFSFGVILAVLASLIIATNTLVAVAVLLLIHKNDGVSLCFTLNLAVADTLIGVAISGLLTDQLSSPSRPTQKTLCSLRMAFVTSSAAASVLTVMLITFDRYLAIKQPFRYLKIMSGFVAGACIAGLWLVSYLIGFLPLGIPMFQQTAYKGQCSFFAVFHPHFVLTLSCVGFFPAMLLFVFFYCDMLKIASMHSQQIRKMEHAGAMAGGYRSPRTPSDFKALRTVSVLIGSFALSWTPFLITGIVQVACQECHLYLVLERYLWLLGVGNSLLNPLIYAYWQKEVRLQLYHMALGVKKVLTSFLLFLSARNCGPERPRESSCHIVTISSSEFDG
Briefly: LANCE Ultra cAMP assay: stimulation of GPR119-mediated cAMP production in CHO cells stably expressing human GPR119 receptor. Format: cell-based. The conditions noted are these: for Emax: CHO, read-out: % cAMP Max. Here is the method:
The potency of GPR119 receptor agonists was assessed by measuring the stimulation of GPR119-mediated cAMP production with LANCE Ultra cAMP assay (Perkin Elmer, TRF0264) in CHO cells stably expressing human GPR119 receptor (Chantest, cat. #A633). CHO-GPR119 cells were cultured in DMEM/F12 medium supplemented with 10% FBS and 1% NEAA at 37° C., 5% CO2, aliquoted and frozen in liquid nitrogen.
For assay, cells were thawed in a water bath at 37° C., washed in Hank's Balanced Salt Solution (HBSS) and resuspended in Stimulation Buffer 1 (SB1) for 30 min: 5 mM HEPES, pH 7.2-7.4, 0.1% BSA in HBSS. […] The ULight-anti-cAMP antibody (Perkin Elmer, TRF0264) was added to the cell suspension making Mix [Cell suspension/4× ULight-anti-cAMP antibodies]. […] The assay plate was centrifuged 200 g, 5 sec.
Serial dilution (100×) of tested compounds were prepared in DMSO in the range of from 30 nM to 1 mM with half-log step in 384-well plates (Greiner, 781280) using Biomek 2000. 10 test concentrations in two repeats were prepared for each CRC. […] The assay plate was incubated 30 minutes at room temperature on a shaker, 250 rpm to allow GPR119 receptor stimulation. The cAMP level was determined according to the standard kit supplier protocol (PerkinElmer, cat. #TRF0264).
(§1) The stock solution of the Eu-cAMP tracer (Perkin Elmer, TRF0264) was diluted 1:100 in cAMP Detection Buffer (Perkin Elmer, TRF0264), making 2× working concentration and added to the assay plate, 10 μL per well. Assay plate was centrifuged 180 g, 1 sec. Then the assay plate was incubated for 60′ at room temperature on shaker, 250 rpm to allow cAMP detection. The TR-FRET signal was measured at Ex-340 nm/Em-615 and Ex-340 nm/Em-665 nm on the reader Tecan M1000. 0% of cAMP stimulation corresponds to the cells with DMSO only, 100% of cAMP stimulation corresponds to the cells with 10 uM Forskolin. The EC50 value defined as the concentration of the drug that gives half-maximal response, were calculated using GraphPad Prizm 5.0 software with forskolin was used as references at each test. Entries 1-17 in Table A-2 show the biological activity of certain representative compounds using the protocol as described above.
For assay, cells were thawed in a water bath at 37° C., washed in Hank's Balanced Salt Solution (HBSS) and resuspended in Stimulation Buffer 1 (SB1) for 30 min: 5 mM HEPES, pH 7.2-7.4, 0.1% BSA in HBSS. […] The ULight-anti-cAMP antibody (Perkin Elmer, TRF0264) was added to the cell suspension, making Mix [Cell suspension/4× ULight-anti-cAMP antibodies]. […] The assay plate was centrifuged 200 g, 5 sec.
as §1, with “1-14” for “1-17”, “B-2” for “A-2”
(In TR-FRET formats the signal depends on donor and acceptor labels being close together.)

Where [1] appears, read: Table B-2 entries 1-14, protocol as described (800 000 cells/mL, 5 uL/well), CHO-GPR119 cells.
Where [2] appears, read: Table B-2 entries 15-39, modified protocol, 500 cells/well.

A value given as a limit tells only on which side of the number the result lay.

With `[O-][S+]1COc2cc(-c3ccc(OCC4CCN(c5ncc(Cl)cn5)CC4)c(F)c3)ccc21` (centres unmarked) [Example B-16, 6-(4-((1-(5-Chloropyrimidin-2-yl)piperidin-4-yl)methoxy)-3-fluorophenyl)-2H-benzo[d][1,3]oxathiole 3-oxide], the EC50 (as a rule, the concentration at which the effect is half-maximal) under setting [1] worked out at 2.3 nM.
For the compound `CC(C)(C)OC(=O)N1CCC(COc2ccc(-c3ccc4c(c3)OC[S+]4[O-])cc2F)CC1` (centres unmarked) [Example B-17, tert-Butyl 4-((2-fluoro-4-(3-oxido-1,3-benzoxathiol-6-yl)phenoxy)methyl) piperidine-1-carboxylate], the EC50 under setting [1] is > 100 nM.
`[O-][S+]1COc2cc(-c3ccc(OCC4CCNCC4)c(F)c3)ccc21` (centres unmarked) [Example B-18]: the EC50 under setting [1] was > 500 nM.
Turning to `CCc1cnc(N2CCC(COc3ccc(-c4ccc5c(c4)OC[S+]5[O-])cc3F)CC2)nc1` (centres unmarked) [Example B-19], under setting [1], the EC50 was determined as 4.8 nM.
As for `CC(C)CC(=O)N1CCC(COc2ccc(-c3ccc4c(c3)OC[S+]4[O-])cc2F)CC1` (centres unmarked) [Example B-23, 1-(4-((2-Fluoro-4-(3-oxido-2H-benzo[d][1,3]oxathiol-6-yl)phenoxy)methyl)-piperidin-1-yl)-3-methylbutane-1-one], the concentration for a half-maximal effect (EC50) under setting [1] is 46.2 nM.
Regarding `COc1cnc(N2CCC(COc3ccc(-c4ccc5c(c4)OC[S+]5[O-])cc3F)CC2)nc1` (centres unmarked) [Example B-24, 6-(3-Fluoro-4-((1-(5-methoxypyrimidin-2-yl)piperidin-4-yl)methoxy)phenyl)-2H-benzo[d][1,3]oxathiole 3-oxide], a half-maximal response under setting [1] (EC50) required 2.3 nM.
Under setting [1], `CCc1ccnc(N2CCC(COc3ccc(-c4ccc5c(c4)OC[S+]5[O-])cc3F)CC2)n1` (centres unmarked) [Example B-25] showed an EC50 of 31.8 nM.
The same measure, in the same setting: then `CCc1ccnc(N2CCC(COc3ccc(-c4ccc5c(c4)OCS5)cc3F)CC2)n1` [Example B-26], with > 500 nM; and `CCOc1cnc(N2CCC(COc3ccc(-c4ccc5c(c4)OC[S+]5[O-])cc3F)CC2)nc1` (centres unmarked) [Example B-27, 6-(4-((1-(5-Ethoxypyrimidin-2-yl)piperidin-4-yl)methoxy)-3-fluorophenyl)-2H-benzo[d][1,3]oxathiole 3-oxide], with 4.7 nM.
As to `CC(C)c1cnc(N2CCC(COc3ccc(-c4ccc5c(c4)OC[S+]5[O-])cc3F)CC2)nc1` (centres unmarked) [Example B-28, 6-(3-Fluoro-4-((1-(5-isopropylpyrimidin-2-yl)piperidin-4-yl)methoxy)phenyl)-2H-benzo[d][1,3]oxathiole 3-oxide], the EC50 under setting [1] came out at 3 nM.
The compound `[O-][S+]1COc2cc(-c3ccc(OCC4CCN(c5ccc(C(F)(F)F)cn5)CC4)c(F)c3)ccc21` (centres unmarked) [Example B-29, 6-(3-Fluoro-4-((1-(5-(trifluoromethyl)pyridin-2-yl)piperidin-4-yl)methoxy)phenyl)-2H-benzo[d][1,3]oxathiole 3-oxide] gave an EC50 under setting [1] of 52 nM.
Under setting [1], `[O-][S@+]1COc2cc(-c3ccc(OCC4CCN(c5ncc(Cl)cn5)CC4)c(F)c3)ccc21` [Example B-32, (S)-6-(4-((1-(5-chloropyrimidin-2-yl)piperidin-4-yl)methoxy)-3-fluorophenyl)-2H-benzo[d][1,3]oxathiole 3-oxide] registered an EC50 of 1.2 nM.
Consider `CCc1ccnc(N2CCC(COc3ccc(-c4ccc5c(c4)OC[S+]5[O-])cc3F)CC2)n1` (centres unmarked) [Example B-35, 6-(4-((1-(4-Ethylpyrimidin-2-yl)piperidin-4-yl)methoxy)-3-fluorophenyl)-2H-benzo[d][1,3]oxathiole 3-oxide], for which, under setting [2], the Emax turned out to be 61% and it took 27.3 nM to reach a half-maximal effect (EC50).
Take `CCc1cnc(N2CCC(COc3ccc(-c4ccc5c(c4)OCS5)cc3F)CC2)nc1` [Example B-37, 2-(4-((4-(Benzo[d][1,3]oxathiol-6-yl)-2-fluorophenoxy)methyl)piperidin-1-yl)-5-ethylpyrimidine]: under setting [2], the Emax stood at 79% and the response was half-maximal at 365 nM (EC50).
With `CC(C)c1cnc(N2CCC(COc3ccc(-c4ccc5c(c4)OCS5)cc3F)CC2)nc1` [Example B-38, 2-(4-((4-(Benzo[d][1,3]oxathiol-6-yl)-2-fluorophenoxy)methyl)piperidin-1-yl)-5-isopropylpyrimidine], under setting [2], the Emax stood at 78% and the 50% effective concentration (EC50) was determined as 10.5 nM.
Taken in the same sequence, the figures for `COc1cnc(N2CCC(COc3ccc(-c4ccc5c(c4)OCS5)cc3F)CC2)nc1` [Example B-39, 2-(4-((4-(Benzo[d][1,3]oxathiol-6-yl)-2-fluorophenoxy)methyl)piperidin-1-yl)-5-methoxpyrimidine] were 64% and 2900 nM.
Consider `CC(C)CC(=O)N1CCC(COc2ccc(-c3ccc4c(c3)OCS4)cc2F)CC1` [Example B-40, 1-(4-((4-(Benzo[d][1,3]oxathiol-6-yl)-2-fluorophenoxy)methyl)piperidin-1-yl)-3-methylbutan-1-one], for which, under setting [2], the Emax is 50% and the EC50 came out at 2000 nM.
For `CCc1cnc(N2CCC(COc3ccc(-c4ccc5c(c4)OC[S@@+]5[O-])cc3F)CC2)nc1` [Example B-45, (S)-6-(4-((1-(5-Ethylpyrimidin-2-yl)piperidin-4-yl)methoxy)-3-fluorophenyl)-2H-benzo[d][1,3]oxathiole 3-oxide], under setting [2], the Emax came to 68% and the EC50 amounted to 2.3 nM.
`COc1cnc(N2CCC(COc3ccc(-c4ccc5c(c4)OC[S@+]5[O-])cc3F)CC2)nc1` [Example B-51, (R)-6-(3-Fluoro-4-((1-(5-methoxypyrimidin-2-yl)piperidin-4-yl)methoxy)phenyl)-2H-benzo[d][1,3]oxathiole 3-oxide]: under setting [2], the Emax stood at 70% and the midpoint of the response, the EC50, lay at 40.6 nM.
Taken in the same sequence, the figures for `CCc1cnc(N2CCC(COc3ccc(-c4ccc5c(c4)OC[S@+]5[O-])cc3F)CC2)nc1` [Example B-52] were 73% and 19.5 nM.
Taken in the same sequence, the figures for `CC(C)c1cnc(N2CCC(COc3ccc(-c4ccc5c(c4)OC[S@+]5[O-])cc3F)CC2)nc1` [Example B-53, (R)-6-(3-fluoro-4-((1-(5-isopropylpyrimidin-2-yl)piperidin-4-yl)methoxy)phenyl)-2H-benzo[d][1,3]oxathiole 3-oxide] were 74% and 41 nM.
In the case of `[O-][S@+]1COc2cc(-c3cnc(OCC4CCN(c5ncc(Cl)cn5)CC4)nc3)ccc21` [Example B-62, (S)-6-(2-((1-(5-Chloropyrimidin-2-yl)piperidin-4-yl)methoxy)pyrimidin-5-yl)-2H-benzo[d][1,3]oxathiole 3-oxide], under setting [2], the Emax came to 66% and the EC50 was determined as 43.5 nM.
As to `CCc1cnc(N2CC[C@@H](COc3ccc(-c4ccc5c(c4)OC[S+]5[O-])cc3F)C2)nc1` (stereo partly drawn) [Example B-67, 6-(4-(((R)-1-(5-Ethylpyrimidin-2-yl)pyrrolidin-3-yl)methoxy)-3-fluorophenyl)-2H-benzo[d][1,3]oxathiole 3-oxide], under setting [2], the Emax came out at 74% and the EC50 amounted to 54 nM.
For `CCc1cnc(N2CC[C@@H](COc3ccc(-c4ccc5c(c4)OCS5)cc3F)C2)nc1` [Example B-69], the EC50 under setting [2] is > 10000 nM.
